Measurements taken from patent US20260125382A1, “COMPOUNDS FOR INHIBITING OR DEGRADING CDK2 AND/OR CDK9 AND MEDICINAL USE THEREOF” (KOREA RESEARCH INSTITUTE OF CHEMICAL TECHNOLOGY, priority 2022, published 2026).

Columns and labels:
CDK2 = target: T1, CDK2 (Homo sapiens, UniProt P24941); experiment: CDK protein degradation activity (Western blotting), CDK2; format: cell-based; conditions: MDA-MB-231 cells, 16 hours, Western blot
T1 construct: endogenous in cells; host or cells: MDA-MB-231
Description: (§1) In order to evaluate the CDK protein degradation activity of the compounds according to the present invention, the following experiment was conducted.
(§2) MDA-MB-231 cells were seeded at 5×10^5 cells per well in a 6-well plate. The next day, the compounds were treated in each well to achieve final concentrations of 100 nM, 1 μM, and 10 μM. For the control group, an equal amount of DMSO was treated in the well as the compound. After 16 hours of treatment, cells were collected, and cell lysates were prepared using Triton X-100 lysis buffer (50 mM HEPES, pH 7.5, 40 mM NaCl, 1% Triton X-100, 1 mM EDTA, 1 mM EGTA, 10 mM pyrophosphate, 10 mM β-glycerophosphate, 50 mM NaF, 1 mM NaVO4, protease inhibitor). Cell lysates were quantified and separated by size using sodium dodecyl sulfate-polyacrylamide gel electrophoresis (SDS-PAGE). Western blotting was then performed using antibodies that recognize CDK2, CDK9, and tubulin, respectively. The results obtained by Western blotting were quantitatively analyzed using the ImageJ program, and representative images according to the experimental results are shown in FIG. 1.

CDK9 = target: T2, CDK9 (Homo sapiens, UniProt P50750); experiment: CDK protein degradation activity (Western blotting), CDK9; format: cell-based; conditions: MDA-MB-231 cells, 16 hours, Western blot
T2 construct: endogenous in cells; host or cells: MDA-MB-231
Description: as §1, §2

T2 sequence (P50750 whole entry): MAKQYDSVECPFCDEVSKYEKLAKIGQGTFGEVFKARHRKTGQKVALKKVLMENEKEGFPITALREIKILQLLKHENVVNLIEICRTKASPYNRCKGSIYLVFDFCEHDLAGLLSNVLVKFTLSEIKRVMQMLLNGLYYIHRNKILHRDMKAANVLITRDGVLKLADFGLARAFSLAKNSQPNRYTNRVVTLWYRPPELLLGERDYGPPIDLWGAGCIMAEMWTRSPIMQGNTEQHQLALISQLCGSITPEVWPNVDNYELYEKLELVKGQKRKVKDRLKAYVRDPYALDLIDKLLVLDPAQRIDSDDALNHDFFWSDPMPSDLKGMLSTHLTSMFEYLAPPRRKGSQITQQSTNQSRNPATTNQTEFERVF

| Molecule | Enzyme degradation CDK2 (% remaining) @ 0.1 μM (CDK2) | Enzyme degradation CDK2 (% remaining) @ 1 μM (CDK2) | Enzyme degradation CDK2 (% remaining) @ 10 μM (CDK2) | Enzyme degradation CDK9 (% remaining) @ 0.1 μM (CDK9) | Enzyme degradation CDK9 (% remaining) @ 1 μM (CDK9) | Enzyme degradation CDK9 (% remaining) @ 10 μM (CDK9) |
| --- | --- | --- | --- | --- | --- | --- |
| Cc1cccc(C(=O)N[C@H]2C[C@@H](n3cnc4c(NC5CCN(CCC6CCN(C(=O)CNc7ccc8c(c7)C(=O)N([C@H]7CCC(=O)NC7=O)C8=O)CC6)CC5)ncnc43)C2)n1 (racemic) [Compound 33, N-((1s,3s)-3-(6-((1-(2-(1-((2-(2,6-dioxopiperidin-3-yl)-1,3-dioxoisoindolin-5-yl)glycyl)piperidin-4-yl)ethyl)piperidin-4-yl)amino)-9H-purin-9-yl)cyclobutyl)-6-methylpicolinamide] | 40% | 30% | 50% | 0/0/0% | 0/0/0% | 0/0/0% |
| Cc1cccc(C(=O)N[C@H]2C[C@@H](n3cnc4c(NC5CCN(CCCN6CCN(c7ccc8c(c7)C(=O)N([C@H]7CCC(=O)NC7=O)C8=O)CC6)CC5)ncnc43)C2)n1 (racemic) [Compound 41, N-((1s,3s)-3-(6-((1-(3-(4-(2-(2,6-dioxopiperidin-3-yl)-1,3-dioxoisoindolin-5-yl)piperazin-1-yl)propyl)piperidin-4-yl)amino)-9H-purin-9-yl)cyclobutyl)-6-methylpicolinamide] | 60% | 60% | 70% | 0/0/0% | 0/0/0% | 0/0/0% |
| O=C1CC[C@H](N2C(=O)c3ccc(NCC(=O)N4CCC(CCCN5CCN(c6ccc(Nc7ncnc8c7ncn8[C@H]7C[C@@H](NC(=O)Cc8ccccc8)C7)cc6)CC5)CC4)cc3C2=O)C(=O)N1 (racemic) [Compound 255, N-((1s,3s)-3-(6-((4-(4-(3-(1-((2-(2,6-dioxopiperidin-3-yl)-1,3-dioxoisoindolin-5-yl)glycyl)piperidin-4-yl)propyl)piperazin-1-yl)phenyl)amino)-9H-purin-9-yl)cyclobutyl)-2-phenylacetamide] | 30/30/30% | 30/30/30% | 30/30/30% | 0/0/0% | 0/0/0% | 0/0/0% |
| O=C1CC[C@H](N2C(=O)c3ccc(NCC(=O)N4CCC5(CC4)CC(N4CCC(c6ccc(Nc7ncnc8c7ncn8[C@H]7C[C@@H](NC(=O)Cc8ccccc8)C7)cc6)CC4)C5)cc3C2=O)C(=O)N1 (racemic) [Compound 296, N-((1s,3s)-3-(6-((4-(1-(7-((2-(2,6-dioxopiperidin-3-yl)-1,3-dioxoisoindolin-5-yl)glycyl)-7-azaspiro[3.5]nonan-2-yl)piperidin-4-yl)phenyl)amino)-9H-purin-9-yl)cyclobutyl)-2-phenylacetamide] | 20% | 0% | 0% | 0/0/0% | 0/0/0% | 0/0/0% |
| Cc1cccc(C(=O)N[C@H]2C[C@@H](n3cnc4c(NC5CCN(CCCCCCNc6ccc7c(c6)C(=O)N([C@H]6CCC(=O)NC6=O)C7=O)CC5)ncnc43)C2)n1 [Compound 17, N-((1s,3s)-3-(6-((1-(6-((2-(2,6-dioxopiperidin-3-yl)-1,3-dioxoisoindolin-5-yl)amino)hexyl)piperidin-4-yl)amino)-9H-purin-9-yl)cyclobutyl)-6-methylpicolinamide] | 90% | 100% | 50% | 10% | 0% | 0% |
| Cc1cccc(C(=O)N[C@H]2C[C@@H](n3cnc4c(NC5CCN(CC6CCN(C(=O)CNc7ccc8c(c7)C(=O)N([C@H]7CCC(=O)NC7=O)C8=O)CC6)CC5)ncnc43)C2)n1 [Compound 25, N-((1s,3s)-3-(6-((1-((1-((2-(2,6-dioxopiperidin-3-yl)-1,3-dioxoisoindolin-5-yl)glycyl)piperidin-4-yl)methyl)piperidin-4-yl)amino)-9H-purin-9-yl)cyclobutyl)-6-methylpicolinamide] | 20% | 20% | 30% | 0/0/0% | 0/0/0% | 0/0/0% |

The next lines start with the values.

| Enzyme degradation CDK2 (% remaining) @ 0.1 μM (CDK2) | Enzyme degradation CDK2 (% remaining) @ 1 μM (CDK2) | Enzyme degradation CDK2 (% remaining) @ 10 μM (CDK2) | Enzyme degradation CDK9 (% remaining) @ 0.1 μM (CDK9) | Enzyme degradation CDK9 (% remaining) @ 1 μM (CDK9) | Enzyme degradation CDK9 (% remaining) @ 10 μM (CDK9) | Molecule |
| --- | --- | --- | --- | --- | --- | --- |
| 20/20/20% | 20/20/20% | 20/20/20% | 10/10/10% | 10/10/10% | 10/10/10% | 2,6-dichloro-N-((1s,3s)-3-(6-((4-(4-((4-(1-(2-(2,6-dioxopiperidin-3-yl)-1,3-dioxoisoindolin-5-yl)azetidin-3-carbonyl)piperazin-1-yl)methyl)piperidin-1-yl)phenyl)amino)-9H-purin-9-yl)cyclobutyl)benzamide [Compound 473] |
| 100% | 70% | 100% | 40% | 0% | 0% | Cc1cccc(C(=O)N[C@H]2C[C@@H](n3cnc4c(NCCC5CCN(CC6CCN(C(=O)CCNc7ccc8c(c7)C(=O)N([C@H]7CCC(=O)NC7=O)C8=O)CC6)CC5)ncnc43)C2)n1 (racemic) [Compound 310, N-((1s,3s)-3-(6-((2-(1-((1-(3-((2-(2,6-dioxopiperidin-3-yl)-1,3-dioxoisoindolin-5-yl)amino)propanoyl)piperidin-4-yl)methyl)piperidin-4-yl)ethyl)amino)-9H-purin-9-yl)cyclobutyl)-6-methylpicolinamide] |
| 10/10/10% | 10/10/10% | 10/10/10% | 0/0/0% | 0/0/0% | 0/0/0% | N#Cc1cccc(C(=O)N[C@H]2C[C@@H](n3cnc4c(Nc5ccc(N6CCN(CC7CCN(c8ccc9nnn([C@H]%10CCC(=O)NC%10=O)c(=O)c9c8)CC7)CC6)cc5)ncnc43)C2)n1 (racemic) [Compound 418, 6-cyano-N-((1s,3s)-3-(6-((4-(4-((1-(3-(2,6-dioxopiperidin-3-yl)-4-oxo-3,4-dihydrobenzo[d][1,2,3]triazin-6-yl)piperidin-4-yl)methyl)piperazin-1-yl)phenyl)amino)-9H-purin-9-yl)cyclobutyl)picolinamide] |
